Measured values published in article PMC11048155, “Antiviral Drug Candidate Repositioning for Streptococcus suis Infection in Non-Tumorigenic Cell Models” (Biomedicines, 2024).
In brackets after ≈: the same amount, converted by molar mass. Entries after “also recorded” stand apart in the source; their conditions may differ.

Key:
IPEC-J2 cells [1] = experiment: Cell viability, Neutral red assay; type: cell-based, porcine; details: IPEC-J2, S. suis 10^4 CFU/mL in combination with inhibitor 50 µM, 24 h
Source text: The IPEC-J2 cell line is unique as it is non-transformed and non-tumorigenic. IPEC-J2 cells are derived from intestinal enterocytes extracted from the jejunum of neonatal unsuckled piglets. IPEC-J2 cells were gifted by Dr. Jody Gookin (Department of Clinical Sciences, College of Veterinary Medicine, North Carolina State University, Raleigh, NC, USA). […] The cells had undergone passage around 50 times. […] This experiment included plain DMEM/F12 medium as a control. At the end of the final treatments (24 h), the ratio of viable cells was measured by absorbance at 540 nm wavelength with a SpectraMax iD3 microplate reader.

CYP2C19 = target: T1, CYP2C19 (Homo sapiens, UniProt P33261); experiment: CYP enzyme fluorometric activity measurement, human hepatic microsomes; type: in vitro ADME; details: inhibitor 50 µM, 15 min, p > 0.05
T1 construct: Human hepatic microsomal supernatants were prepared; tissue Gibco; host or cells: human liver microsomes
T1 sequence (P33261 whole entry): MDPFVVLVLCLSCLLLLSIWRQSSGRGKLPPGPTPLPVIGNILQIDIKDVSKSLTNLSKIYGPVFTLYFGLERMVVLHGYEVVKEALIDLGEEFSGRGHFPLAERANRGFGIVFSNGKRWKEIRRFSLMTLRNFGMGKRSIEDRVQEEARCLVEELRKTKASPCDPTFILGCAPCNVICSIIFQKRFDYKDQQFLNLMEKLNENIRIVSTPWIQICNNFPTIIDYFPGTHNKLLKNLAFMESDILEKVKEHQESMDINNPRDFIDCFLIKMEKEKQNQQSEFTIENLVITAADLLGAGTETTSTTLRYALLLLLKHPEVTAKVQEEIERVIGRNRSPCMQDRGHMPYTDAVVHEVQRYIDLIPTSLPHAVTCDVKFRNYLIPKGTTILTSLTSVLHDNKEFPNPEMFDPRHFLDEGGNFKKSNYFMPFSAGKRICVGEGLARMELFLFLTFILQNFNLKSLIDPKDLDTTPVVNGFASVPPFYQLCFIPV
Protocol: The Biovision CYP assays (BioVision, Inc., Kampenhout, Belgium) employ non-fluorescent CYP2D6, 2C9, 2C19, 1A2, or 3A4 substrates able to undergo transformation into highly fluorescent detectable metabolites. […] Human hepatic microsomal supernatants were prepared (Gibco, Biocentre, Szeged, Hungary protein concentration: 20 mg/mL) separately by mixing 30 µL with 2425 µL assay buffer and with 50 µL nicotinamide adenine dinucleotide phosphate (NADPH) generating system (100×). […] Control measurements were performed in the absence of the inhibitors.
In background controls, only assay buffer excluding microsomes and test compounds was used in a volume of 70 µL. Subsequently, after incubation at 37 °C for 15 min, 30 µL of the suitable CYP substrate/NADP+ mixture was incorporated into each well, resulting in a final reaction volume of 100 µL/well. The obtained microsomal protein content was assessed using the bicinchoninic acid protein assay kit (Pierce BCA kit, Thermo Fisher Scientific, Waltham, MA, USA). In each assay, the microsomal protein concentration was calibrated to 100 µg/well. The fluorescence intensities were measured with a fluorometer (Victor X2 2030, Perkin Elmer, Waltham, MA, USA) using λex/em = 406/468 nm for CYP1A2 and for CYP2C19, λex/em = 415/502 nm for CYP2C9, λex/em = 390/468 nm for CYP2D6, and λex/em = 535/587 nm for CYP3A4 assays.

[2] = test system: Escherichia (E.) coli (ATCC 11775); experiment: MIC measurement (broth microdilution); type: cell-based; details: source ATCC, 18–24 h at 37 °C
S. suis serotype 2 = experiment: MIC measurement (broth microdilution); type: cell-based, Streptococcus suis; details: source 672/22, 18–24 h at 37 °C
IPEC-J2 cells [3] = experiment: IL-6 production, porcine IL-6 ELISA; type: cell-based; details: IPEC-J2, S. suis 10^4 CFU/mL in combination with inhibitor, 24 h
Protocol: (§1) After 24 h incubation time, the cell-free supernatants from […], MI-471, and MI-476 exposure were sampled from IPEC-J2 cells and from porcine hepatocytes. The changes in cytokine levels were detected with porcine IL-6 ELISA kits. The manufacturer’s instructions were followed to treat the supernatants and measured by a SpectraMax iD3 microplate reader at 450 nm.

porcine hepatocytes = experiment: IL-6 production, porcine IL-6 ELISA; type: cell-based; details: S. suis 10^4 CFU/mL in combination with inhibitor, 24 h
Protocol: as §1

[4] = test system: primary porcine hepatocytes; experiment: Cell viability, Neutral red assay; type: cell-based; details: S. suis 10^4 CFU/mL in combination with inhibitor 50 µM, 24 h
Protocol: Porcine cryopreserved primary hepatocytes were obtained from Primacyt Cell Culture Company (Schwerin, Germany). Lonza Group Ltd. (Biocenter Ltd., Szeged, Hungary) supplied the thawing, plating, and maintenance media. The cytotoxic effects of inhibitors MI-432, MI-471, and MI-476 were tested on the viability of primary hepatocytes using the NR method. The hepatocytes were cultivated on a 96-well plate for 24 h, followed by incubation with the inhibitors at 0, 50, and 100 µM for an additional 24 h. Only cell maintenance medium was used to incubate the control cells. The plate underwent incubation together with NR dye for 2 h. Hepatocyte viability was recorded at 540 nm with a SpectraMax iD3 microplate reader.

Row | Structure (SMILES) | cell viability (IPEC-J2 cells [1]) | CYP2C19 activity (CYP2C19) | MIC [2] | MIC (S. suis serotype 2; Streptococcus suis) | MIC (S. suis serotype 2) | IL-6 levels (IPEC-J2 cells [3]) | IL-6 levels (porcine hepatocytes) | cell viability [4]
1 | N=C(N)c1cccc(C[C@H](NS(=O)(=O)c2cccc(-c3ccc(Cl)cc3Cl)c2)C(=O)N2CCC(N)CC2)c1 [MI-471] | did not show any negative effect on cell viability; also recorded: effectively suppressed | No significant inhibitory effects | > 800 µM | 3 µM (≈ 1.72 µg/mL) | 3.125 µM (≈ 1.8 µg/mL) | significant anti-inflammatory effects | significant anti-inflammatory effects | 
2 | N=C(N)c1cccc(C[C@H](NS(=O)(=O)c2cccc(-c3ccc(Cl)cc3Cl)c2)C(=O)N2CCC(CN)CC2)c1 [MI-476] | did not show any negative effect on cell viability; also recorded: effectively suppressed | No significant inhibitory effects | > 800 µM | 6 µM (≈ 3.53 µg/mL) | 6.25 µM (≈ 3.68 µg/mL) | significant anti-inflammatory effects | significant anti-inflammatory effects | did not deteriorate cell viability; also recorded: effectively suppressed
